Entries after “also recorded” stand apart in the source; their conditions may differ.
Legend:
stomata [1] = assay: Stomatal aperture in barley leaf epidermal peels; type: cell-based; conditions: exogenous PAP 100 μM
Procedure: Measurements of stomatal closure in response to ABA, PAP, cordycepin and ATP treatments were performed on epidermal strips from Arabidopsis and barley plants grown under specific conditions. Plants were grown under high humidity (approximately 80% RH) and 12 h/12 h and 22/20° C. light/dark cycle in a growth chamber. Epidermal peels of newly expanding true leaves of three to four-week old plants. Stomatal apertures were measured in epidermal peels of newly expanded leaves. Peels were taken from the abaxial leaf surface and were fixed to the glass bottom of the experimental chamber after coating the chamber surface with an optically clear and pressure-sensitive silicon adhesive (Factor II, Tucson, USA). The attached epidermal peel is subsequently immersed in an opening buffer (OB: 50 mM KCl, 5 mM MES titrated to pH 6.1 with NaOH) and incubated, at plant growth conditions, for approximately 2 h. […] Stomata aperture width and length were measured using Image J (NIH, USA). The pore area of each stomate was calculated using these values under the assumption that the area of a stomatal pore was that of an ellipse. Data are expressed as percentage over the control.

[2] = PAP accumulation in leaves after petiole feeding; type: in vivo, Arabidopsis; conditions: petiole feeding of PAP for 1 h, alone or co-applied with LiCl or ATP
Procedure: (§1) Five- to six-week-old plants were used to prepare epidermal peels. ABA at a concentration of 20 μM in water was root fed to hydroponically grown plants or sprayed onto leaves using a Studio Series IS-875 with a 0.5 mm nozzle opening (Iwata). We investigated if PAP accumulation in the double mutants could affect the production of NO during ABA-induced stomatal closure by treating epidermal peels with the inhibitor of NO synthase N(G)-methyl-L-arginine (NMA). For the investigation of the effect of different chemicals on stomatal closure, 20 μM ABA (Sigma-Aldrich), 100 mM LiCl, or 1 mM ATP, 1 mM or 100 μM PAP (Sigma-Aldrich) alone or in different combinations were prepared in infiltration buffer (1 mM PIPES KOH pH 6.0, 1 mM Sodium citrate, 1 mM KCl, 15 mM Sucrose) modified from a cordycepin infiltration buffer.
Total adenosines were extracted with 0.1 M HCl, derivatization with chloroacetaldehyde and quantified fluorometrically after HPLC fractionation. 3′-phosphoadenosine 5′-phosphate (PAP) quantification was performed by integrating the HPLC peak area and converting these to pmol units using standard curves of 1, 5 and 10 pmol standard.

guard cells [3] = assay: Ion fluxes (K+, Cl- and Ca2+) in guard cells; type: cell-based, Arabidopsis; conditions: wild type, ost1-2, alx8 and ost1-2 alx8
guard cells [4] = assay: ROS accumulation in guard cells of epidermal peels; type: cell-based, Arabidopsis; conditions: wild type, ost1-2 and ost1-2 alx8
Procedure: The ABA- and PAP-induced accumulation of ROS in guard cells of epidermal peels was measured using dichlorofluorescein diacetate (H2DCFDA, Invitrogen). After 2 h of incubation in OB, the epidermal peel was incubated with 20 μM dye dissolved in DMSO and MB for 30 min, and then rinsed with MB three times. Epidermal peels were incubated in ABA or PAP dissolved in MB (or MB only as a negative control) for 10 min. Fluorescence images were taken using a Leica inverted confocal microscope controlled by the LAS AF software (Leica Microsystems, Germany). We used the 496-nm excitation line of an argon multiline laser. H2DCFDA fluorescence emission was detected at 505 to 525 nm. Chloroplast fluorescence was detected at 680 to 700 nm in order to separate the autofluorescence of chlorophyll in guard cells. Images were quantified with Image J software (National Institutes of Health, USA). The background signal was measured from the empty region of the similar size and subtracted from the stomata signal to obtain corrected total stomatal fluorescence values. Each stomate was considered to represent a single biological unit and thus fluorescence values were averaged across all stomata at each time point for each treatment. At least three biological replicates were measured for each treatment.

seeds = assay: Seed germination assay; type: in vivo, Arabidopsis
Procedure: Seeds used for germination assays were 3-months-old and all from seed stocks produced and harvested from plants grown under identical conditions at the same time. Seeds were sterilized and grown on 0.8% (w/v) agar plates containing Murashige-Skoog (MS) nutrients and 2% (w/v) sucrose. Different combinations of 0, 1 μM ABA, 0, 0.5 μM paclobutrazol and/or 0, 100, 500 and 1000 μM PAP were supplemented into the media using the infiltration buffer. At least 70-100 seeds from each genotype were plated on the same plate for efficient comparison. The seeds were stratified at 4° C. in the dark for 48 h before transfer to a growth cabinet and grown at 22° C. under 24-h light (100 μmol photons m^−2 s^−1) unless stated otherwise. The germination was scored after 3 days as the emergence of the radicle through the seed coat and the germination rate was calculated as the percentage of the total number of seeds per treatment with five replicates for each treatment. The experiment was repeated twice and statistical analyses are described below.

stomata [5] = assay: Stomatal aperture in epidermal leaf peels; type: cell-based, Arabidopsis
Procedure: as §1
Measurements of stomatal aperture were performed with epidermal strips taken from five- to six-week-old plants. Fully developed leaves were cut and placed with their adaxial side onto cello tape. The vein was removed by razor blade and the abaxial epidermis was subsequently peeled off by using another strip of cello tape. To promote stomatal opening, the peels left adhered to the Scotch (810D Magic Tape, ¾ inch, 3M) were placed in petri dishes filled with stomatal opening solution (10 mM MES, 5 mM KCl, 50 μM CaCl2, pH 6.5) and incubated for 2 h at 22° C. under 150-200 μmol photons m^−2 s^−1 of light. Once the stomata were fully open, strips were maintained in the opening buffer or treated with various compounds according to the experiment. After treatment, photographs of stomata were taken using Leica microscope (Leica Microsystems, Wetzlar, Germany) at 20×. Stomatal aperture was measured using the image-processing software ImageJ. For stomatal aperture measurements, the ratio of stomatal pore width and length was used instead of width as this normalizes the pores of stomata of different size. Small stomata with a stomatal pore length of less than 7.5 μm were discarded. For each data point, 90 stomata were measured in 3 independent experiments. In each experiment, 10 stomata were measured in 3 epidermal strips per sample per treatment.
Measurements of stomatal closure in response to ABA, PAP, cordycepin and ATP treatments were performed on epidermal strips from Arabidopsis and barley plants grown under specific conditions. Plants were grown under high humidity (approximately 80% RH) and 12 h/12 h and 22/20° C. light/dark cycle in a growth chamber. Epidermal peels of newly expanding true leaves of three to four-week old plants. Stomatal apertures were measured in epidermal peels of newly expanded leaves. Peels were taken from the abaxial leaf surface and were fixed to the glass bottom of the experimental chamber after coating the chamber surface with an optically clear and pressure-sensitive silicon adhesive (Factor II, Tucson, USA). The attached epidermal peel is subsequently immersed in an opening buffer (OB: 50 mM KCl, 5 mM MES titrated to pH 6.1 with NaOH) and incubated, at plant growth conditions, for approximately 2 h. Stomatal images were taken using a bright-field microscope capable of 400× magnification for 10 minutes in OB and subsequently in Measuring Buffer [MB: 10 mM KCl, 5 mM MES titrated to pH 6.1 with Ca(OH)2] or PAP or cordycepin or ABA (dissolved in MB) for another 50 min. In total this was a 60 minute time course and images of the epidermal section were taken every 5 minutes using NIS Elements software (Nikon, Japan). Stomata aperture width and length were measured using Image J (NIH, USA). The pore area of each stomate was calculated using these values under the assumption that the area of a stomatal pore was that of an ellipse. Data are expressed as percentage over the control.

Which results are given for `Nc1ncnc2c1ncn2[C@@H]1O[C@H](COP(=O)(O)O)[C@@H](OP(=O)(O)O)[C@H]1O` [PAP, 3′-phosphoadenosine 5′-phosphate]?
stomatal conductance in barley (stomata [1]): regulates stomatal conductance in barley; accumulation of PAP in leaves [2]: results in accumulation of PAP in leaves; ion fluxes (guard cells [3]): mediated similar rapid changes in ion fluxes in all genotypes; ROS burst in guard cells (guard cells [4]): phenocopying of the timing and extent of the ABA-induced ROS burst; ABA responsiveness of germination in abi1-1 (seeds; abi1-1 seeds, addition of PAP alone): restored ABA responsiveness in abi1-1; seed germination / dormancy (seeds; wild type seeds, exogenous PAP in conjunction with exogenous ABA (1 μM) or lower GA): extended the dormancy of seeds; also recorded: repress germination in wild type seeds in a dose-dependent manner; magnitude and rate of ABA-mediated stomatal closure with added PAP (stomata [5]; PAP together with ABA): further enhanced; stomatal closure in leaf peels (stomata [5]; leaf peels of wild type plants, 1 hr, PAP 100 μM, ABA 100 μM, cordycepin 10 μM): elicited rapid stomatal closure similar to the ABA response; also recorded: nearly identical to that of ABA

From US20180355369A1, “Method for Increasing Plant Stress Tolerance and Seed Dormancy” (The Australian National University, priority 2015, published 2018)
